Consider 19 molecules from patent US5008268A, “2-aminopyrimidinone derivatives” (Janssen Pharmaceutica N.V., priority 1989, dated 1991).

Structures are written as SMILES.

What all share (type): in vivo
For assay [1], the system named is compound 48/80-induced gastric lesions. As to the kind of experiment: Protection of rats from compound 48/80-induced gastric lesions (antiserotoninergic). The following applies: Rattus norvegicus, dose at which stomach distention and glandular-area lesions are completely absent in half of the rats. The text has this: (§1) Int. Pharmacodyn. Ther. 251, 39-51 (1981).
The ED50 values of the tested compounds are listed in the second column of table 4. Said ED50 values are the doses in mg per kg bodyweight at which the distention of the stomach as well as lesions in the glandular area of the stomach are completely absent in half of the test rats.

The test system of assay [2] is peripheral serotonin. As to the kind of experiment: Combined apomorphine, tryptamine and norepinephrine test in rats: tryptamine-induced hyperaemia of the ears. The following applies: Rattus norvegicus, dose protecting half of tested animals from peripheral serotonin-induced phenomena, in particular hyperaemia of the ears.
Description: as §1
Pharmacodyn, 227, 238-253 (1977). Said test provides an empirical evaluation of the relative specificity with which drugs may effect particular neurotransmitters centrally (CNS) as well as peripherally. […] The ED50 values of the tested compounds are listed in column 3 of table 4 and represent the dose in mg per kg bodyweight which protects half of the tested animals from peripheral serotonin-induced phenomena, in particular hyperaemia of the ears.

Assay [3] deals with compound 48/80-induced lethality. As to the kind of experiment: Protection of rats from compound 48/80-induced lethality (antihistaminic). The following applies: Rattus norvegicus, dose protecting 50% of tested animals against compound 48/80-induced lethality.
Description: as §1
The ED50 values of the tested compounds of formula (I) are listed in the first column of table 4. Said ED50 values are the values in mg per kg bodyweight at which the tested compounds protect 50% of the tested animals against compound 48/80-induced lethality.

`Cc1nc(N)n(C)c(=O)c1CCN1CCC(Nc2nc3ccccc3n2Cc2ccc(F)cc2)CC1` [Compound 7]: the ED50 (in general, the dose at which the effect has come halfway, by size or by number of responders) in assay [1] worked out at 0.02 mg/kg; in assay [2] it was 0.01 mg/kg.
For `Cc1nc(N)n(C)c(=O)c1CCN1CCC(Nc2nc3ccccc3n2Cc2ccc(CO)o2)CC1` [Compound 15, 2-amino-5-[2-[4-[[1-[[5-hydroxymethyl-2-furanyl]methyl]-1H-benzimidazol-2-yl]amino]-1-piperidinyl]ethyl]-3,6-dimethyl-4(3H)-pyrimidinone], the ED50 in assay [3] was 0.02 mg/kg; in assay [1], 0.005 mg/kg; in assay [2], 0.002 mg/kg.
In the same order, the values of `CNc1nc(C)c(CCN2CCC(Nc3nc4ccccc4n3Cc3ccc(CO)o3)CC2)c(=O)n1C` [Compound 17, 5-[2-[4-[[1-[[5-(hydroxymethyl)-2-furanyl]methyl]-1H-benzimidazol-2-yl]amino]-1-piperidinyl]ethyl]-3,6-dimethyl-2(methylamino)-4(3H)-pyrimidinone] are 0.02 mg/kg, 0.01 mg/kg and 0.002 mg/kg.
As for `Cc1nc(NCc2ccccn2)n(C)c(=O)c1CCN1CCC(Nc2nc3ccccc3n2Cc2ccc(CO)o2)CC1` [Compound 39], the results for the ED50 in assay [3], in assay [1] and in assay [2] were 0.08 mg/kg, 0.04 mg/kg and 0.005 mg/kg, respectively.
In the same order, the values of `Cc1nc(NCc2ccccn2)n(C)c(=O)c1CCN1CCC(Cc2nc3ccccc3n2Cc2ccc(F)cc2)CC1` [Compound 21] are 0.04 mg/kg, 0.08 mg/kg and 0.01 mg/kg.
For the molecule `Cc1nc2n(C)ccn2c(=O)c1CCN1CCC(Cc2nc3ccccc3n2Cc2ccc(CO)o2)CC1` [Compound 79], the results for the ED50 in assay [1] and in assay [2] were 0.04 mg/kg and 0.02 mg/kg, respectively.
On the same counts, the results for `Cc1ccc(Cn2c(NC3CCN(CCc4c(C)nc(NCc5ccccc5)n(C)c4=O)CC3)nc3cccnc32)o1` [Compound 3] are 0.08 mg/kg and 0.005 mg/kg.
`CC1=NN(C)c2nc(C)c(CCN3CCC(Cc4nc5ccccc5n4Cc4ccc(F)cc4)CC3)c(=O)n2C1` [Compound 58]: the values for the ED50 in assay [3], in assay [1] and in assay [2] were 0.04 mg/kg, 0.16 mg/kg and 0.02 mg/kg, respectively.
On to `CCCNc1nc(C)c(CCN2CCC(Nc3nc4ccccc4n3Cc3ccc(CO)o3)CC2)c(=O)n1C` [Compound 43, 5-[2-[4-[[1-[[5-(hydroxymethyl)-2-furanyl]methyl]-1H-benzimidazol-2-yl]amino]-1-piperidinyl]ethyl]-3,6-dimethyl-2-(propylamino)-4(3H)-pyrimidinone], for which the ED50 in assay [3] stood at 0.08 mg/kg; in assay [1], 0.04 mg/kg; in assay [2] it was 0.005 mg/kg.
With `CCNc1nc(C)c(CCN2CCC(Nc3nc4ccccc4n3Cc3ccc(CO)o3)CC2)c(=O)n1C` [Compound 29], the ED50 was found to be 0.08 mg/kg in assay [3], 0.16 mg/kg in assay [1] and 0.005 mg/kg in assay [2].
For the molecule `Cc1nc2ccccn2c(=O)c1CCN1CCC(Nc2nc3cccnc3n2Cc2ccco2)CC1` [reference, 3-[2-[4-[[3-(2-furanylmethyl)-3H-imidazo[4,5-b]pyridin-2-yl]amino]-1-piperidinyl]ethyl]-2-methyl-4H-pyrido[1,2-a]pyrimidin-4-one, reference compound], the ED50 in assay [3] turned out to be 0.08 mg/kg; in assay [1], 0.63 mg/kg; in assay [2], 0.63 mg/kg.
Regarding `Cc1nc(N)n(C)c(=O)c1CCN1CCC(Cc2nc3ccccc3n2Cc2ccc(F)cc2)CC1` [Compound 11, 2-amino-5-[2-[4-[[1-[(4-fluorophenyl)methyl]-1H-benzimidazol-2-yl]-methyl]-1-piperidinyl]ethyl]-3,6-dimethyl-4(3H)pyrimidinone], the median effective dose (ED50) came out at 0.02 mg/kg in assay [3], 0.16 mg/kg in assay [1] and 0.005 mg/kg in assay [2].
On to `Cc1nc2n(C)c(C)cn2c(=O)c1CCN1CCC(Nc2nc3ccccc3n2Cc2ccc(CO)o2)CC1` [Compound 71], for which the ED50 was 0.04 mg/kg in assay [1] and 0.01 mg/kg in assay [2].
Turning to `Cc1nc2n(C)ccn2c(=O)c1CCN1CCC(Nc2nc3ccccc3n2Cc2ccc(CO)o2)CC1` [Compound 68], the ED50 in assay [1] and in assay [2] was 0.04 mg/kg throughout.
As for `CCOCCNc1nc(C)c(CCN2CCC(Nc3nc4ccccc4n3Cc3ccc(CO)o3)CC2)c(=O)n1C` [Compound 30], the ED50 in assay [3] worked out at 0.04 mg/kg; in assay [1], 0.02 mg/kg; in assay [2] it was 0.02 mg/kg.
For `Cc1ccc(Cn2c(NC3CCN(CCc4c(C)nc5n(C)nc(C)n5c4=O)CC3)nc3cccnc32)o1` [Compound 67], the figures for the ED50 in assay [3], in assay [1] and in assay [2] were 0.04 mg/kg, 0.08 mg/kg and 0.08 mg/kg, respectively.
Take `Cc1nc2n(C)c(C)cn2c(=O)c1CCN1CCC(Cc2nc3ccccc3n2Cc2ccc(F)cc2)CC1` [Compound 50]: the ED50 in assay [3] was 0.04 mg/kg; in assay [1] it was 0.16 mg/kg; in assay [2] it was 0.02 mg/kg.
On the same counts, the results for `Cc1nc(N)n(C)c(=O)c1CCN1CCC(Nc2nc3cccnc3n2Cc2ccc(CO)o2)CC1` [Compound 16] are 0.01 mg/kg, 0.16 mg/kg and 0.005 mg/kg.
On the same counts, the results for `CCCCNc1nc(C)c(CCN2CCC(Nc3nc4cccnc4n3Cc3ccc(C)o3)CC2)c(=O)n1C` [Compound 34] are 0.04 mg/kg, 0.08 mg/kg and 0.02 mg/kg.
